# Legend:
# in vitro = conditions: % Cytotoxicity, apical LDH release
# Outline: (§1)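 EpiAirway cultures treated 1 h with each lipid; PBS as negative control. LDH released apically and basolaterally measured colorimetrically at 490 nm after 30 min substrate incubation at room temperature. Cytotoxicity expressed as percent of 1% Triton X-100 lysis control, set to 100%.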
# [1] = system: human-derived tracheal/bronchial epithelial cells (EpiAirway Tissue Model); assay: in vitro; conditions: for Cytotoxic Effect (LDH) 1 hr. Post-treatments: percent of Triton-X100 LDH levels
# Outline: as §1
# [2] = system: human-derived tracheal/bronchial epithelial cells (EpiAirway Tissue Model); assay: FITC-Dextran permeation assay across epithelial cell monolayer; type: cell-based
# Outline: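 Formulations applied apically to EpiAirway tissue inserts, shaken ~100 rpm 1.5 hours at 37 °C, with FITC-dextran (3-500 kDa) added apically. Basolateral fluorescence read at 470 nm in triplicate; result expressed as percent of FITC-dextran crossing apical to basolateral.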
# [3] = system: human-derived tracheal/bronchial epithelial cells (EpiAirway Tissue Model); assay: Transepithelial electrical resistance (TER) of an epithelial cell monolayer; type: cell-based
# Outline: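 EpiAirway human tracheal/bronchial epithelial tissue inserts, fed daily during recovery; resistance read with EVOM voltohmmeter in Endohm-12 chamber in MatTek medium, blank-insert background (about 5-20 ohms) measured. TER normalised to tissue surface area, expressed as Ohms*cm2 and percent of original TER; lower TER taken as enhanced permeation.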
smiles,measurement,setting,value
"CCCCCCCCCCCCCCCC(=O)OC[C@H](COP(=O)([O-])OCC[N+](C)(C)C)OC(=O)CCCC=O [POVPC, 1-Palmitoyl-2-(5′-oxo-Valeroyl)-sn-Glycero-3-Phosphocholine]","cytotoxicity at 1 h, 1000 μM",in vitro; lipid 1000 μM in Buffer I,15%
same,"cytotoxicity at 1 h, 1000 μM",in vitro; lipid 1000 μM in Buffer II,15%
same,% Relative Cytotoxic Effect (LDH),[1]; in the presence of FITC-Dextran FD3 (Table 6),19%
same,% Relative Cytotoxic Effect (LDH),[1]; in the presence of FITC-Dextran FD10 (Table 6),11%
same,% Relative Cytotoxic Effect (LDH),[1]; in the presence of FITC-Dextran FD40 (Table 6),13%
same,% Relative Cytotoxic Effect (LDH),[1]; in the presence of FITC-Dextran FD70 (Table 6),13%
same,% Relative Cytotoxic Effect (LDH),[1]; in the presence of FITC-Dextran FD500 (Table 6),12%
same,Cytotoxic Effect (LDH) 1 hr. Post-treatments,[1]; lipid 62.5 μM,2%
same,Cytotoxic Effect (LDH) 1 hr. Post-treatments,[1]; lipid 125 μM,2%
same,Cytotoxic Effect (LDH) 1 hr. Post-treatments,[1]; lipid 250 μM,5%
same,Cytotoxic Effect (LDH) 1 hr. Post-treatments,[1]; lipid 500 μM,11%
same,Mean % Relative Cytotoxic Effect (LDH),[1]; lipid 1000 μM (Table 4),9%
same,LDH levels for each incubation time period,"[1]; lipid 1000 μM, 15, 30 and 60 minute incubation",below 10%
same,Cytotoxic Effect (LDH) 1 hr. Post-treatments,[1]; lipid 1000 μM,21%
same,permeation of FITC-dextran 3000 (FD3) over time,"[2]; 1000 μM, 15, 30, 60 minutes",time-dependent permeation
same,% FITC-Dextran Permeation FD3,[2]; lipid 500 μM (Table 5),2%
same,% FITC-Dextran Permeation FD10,[2]; lipid 1000 μM,3%
same,% FITC-Dextran Permeation FD40,[2]; lipid 1000 μM,1%
same,% FITC-Dextran Permeation FD70,[2]; lipid 1000 μM,0.3%
same,% FITC-Dextran Permeation FD500,[2]; lipid 1000 μM,0%
same,% FITC-Dextran Permeation FD3,[2]; lipid 1000 μM (Table 5),10%
same,% FD3 Permeation,[2]; lipid 1000 μM in Buffer I,53%
same,% FD3 Permeation,[2]; lipid 1000 μM in Buffer II,9%
same,Mean % FD3 Permeation,"[2]; lipid 1000 μM, FITC-dextran 3000 (Table 4)",10%
same,permeation of FD3 relative to negative controls,[2]; text summary of Table 4,enhanced the permeation of FD3 above that of the negative controls
same,TER reduction by 60 minutes,"[3]; 1000 μM, 60 minutes",levels nearly equivalent to that of the Triton-X100™ control
same,TER reduced to % below that of the PBS control,"[3]; 1000 μM, within 15 minutes",20%
same,TER reduced to % of the PBS control,"[3]; 1000 μM, within 30 minutes",about 25%
same,activity at 1000 µM,"[3]; Homo sapiens, Epithelial cell, 1 h, lipid 1000 μM, lower value = greater TER reduction (Table 4), read-out: Mean % of Original TER Value",0%
same,Mean TER Reduction 1 hr. Post-treatment,[3]; lipid 62.5 μM,23%
same,Mean TER Reduction 1 hr. Post-treatment,[3]; lipid 125 μM,32%
same,Mean TER Reduction 1 hr. Post-treatment,[3]; lipid 250 μM,52%
same,Mean TER Reduction 1 hr. Post-treatment,[3]; lipid 500 μM,87%
same,% Original TER,[3]; lipid 1000 μM in Buffer I,25%
same,% Original TER,[3]; lipid 1000 μM in Buffer II,17%
same,Mean TER Reduction 1 hr. Post-treatment,"[3]; lipid 1000 μM, percent decrease in TER from time zero",93%

# Source: patent US20070077283A1, “METHOD OF ENHANCING TRANSMUCOSAL DELIVERY OF THERAPEUTIC COMPOUNDS” (Nastech Pharmaceutical Company Inc., priority 2005, published 2007)
